# Tested on: ATF4 luciferase reporter in HEK293T cells
# Assay: ATF4-Luc assay (ATF4 luciferase reporter, tunicamycin-treated HEK293T cells)
# Format: cell-based, human
# Conditions: Homo sapiens, HEK-293T; HEK293T cells carrying the ATF4 luciferase reporter, 1 μg/mL tunicamycin, 7 hours
row,Structure (SMILES),EC50 [nM]
1,"CC(=O)NC1CC2(NC(=O)COc3ccc(Cl)c(F)c3)CCC1(NC(=O)COc1ccc(Cl)c(F)c1)CC2 (stereo not shown) [Compound 358, N,N′-(2-acetamidobicyclo[2.2.2]octane-1,4-diyl)bis[2-(4-chloro-3-fluorophenoxy)acetamide]]",< 10
2,"O=C(COc1ccc(Cl)c(F)c1)NC12CC(NC(=O)COc3ccc4c(c3)OC(F)(F)O4)(C1)C2 [Compound 258, 2-(4-chloro-3-fluorophenoxy)-N-(3-{2-[(2,2-difluoro-2H-1,3-benzodioxol-5-yl)oxy]acetamido}bicyclo[1.1.1]pentan-1-yl)acetamide]",< 10
3,"O=C(COc1ccc(OC(F)(F)F)cc1)NC12CCC(NC(=O)COc3ccc(F)cc3)(CC1)[C@@H](O)C2 [Compound 781, 2-(4-fluorophenoxy)-N-[(2S)-2-hydroxy-4-{2-[4-(trifluoromethoxy)phenoxy]acetamido}bicyclo[2.2.2]octan-1-yl]acetamide]",< 10
4,"O=C(COc1cc(F)c2cn[nH]c2c1)NC12CCC(NC(=O)COc3ccc(Cl)cc3)(CC1)[C@@H](O)C2 [Compound 725, 2-(4-chlorophenoxy)-N-[(25)-4-{2-[(4-fluoro-1H-indazol-6-yl)oxy]acetamido}-2-hydroxybicyclo[2.2.2]octan-1-yl]acetamide]",< 10
5,"O=C(COc1ccc(Cl)c(CO)c1)NC12CCC(NC(=O)COc3ccc(Cl)c(F)c3)(CC1)[C@@H](O)C2 [Compound 598, 2-(4-chloro-3-fluorophenoxy)-N-[(2S)-4-{2-[4-chloro-3-(hydroxymethyl)phenoxy]acetamido}-2-hydroxybicyclo[2.2.2]octan-1-yl]acetamide]",< 10
6,"O=C(COc1ccc(Cl)c(F)c1)NC12CC(NC(=O)OCc3ccccc3)(C1)C2 [Compound 192, benzyl {3-[2-(4-chloro-3-fluorophenoxy)acetamido]bicyclo[1.1.1]pentan-1-yl}carbamate]",500 to 2000
7,"Cc1ncnc(C)c1OCC(=O)NC12CCC(NC(=O)COc3ccc(Cl)c(F)c3)(CC1)C[C@@H]2O [Compound 493, 2-(4-chloro-3-fluorophenoxy)-N-[(3S)-4-{2-[(4,6-dimethylpyrimidin-5-yl)oxy]acetamido}-3-hydroxybicyclo[2.2.2]octan-1-yl]acetamide]",> 2000
8,"O=C(COc1ccc(Cl)cc1)NC12CC(NCCOc3ccc(Cl)cc3)(C1)C2 [Compound 113, 2-(4-chlorophenoxy)-N-(3-{[2-(4-chlorophenoxy)ethyl]amino}bicyclo-[1.1.1]pentan-1-yl)acetamide]",50 to 250
9,"O=C(COc1ccc(F)c(F)c1)NC12CC(NC(=O)COc3ccc(Cl)c(F)c3)(C1)C2 [Compound 183, 2-(4-chloro-3-fluorophenoxy)-N-{3-[2-(3,4-difluorophenoxy)acetamido]-bicyclo[1.1.1]pentan-1-yl}acetamide]",< 10
10,"O=C(COc1ccc(Cl)c(F)c1)NC12CC(NC(=O)COc3cnc(F)c(Cl)c3)(C1)C2 [Compound 240, 2-(4-chloro-3-fluorophenoxy)-N-(3-{2-[(5-chloro-6-fluoropyridin-3-yl)oxy]acetamido}bicyclo[1.1.1]pentan-1-yl)acetamide]",< 10
11,"O=C(COc1ccc(OC(F)(F)F)c(F)c1)NC12CCC(NC(=O)COc3ccc(OC(F)(F)F)cc3)(CC1)[C@@H](O)C2 [Compound 764, 2-[3-fluoro-4-(trifluoromethoxy)phenoxy]-N-[(3S)-3-hydroxy-4-{2-[4-(trifluoromethoxy)phenoxy]acetamido}bicyclo[2.2.2]octan-1-yl]acetamide]",10 to 50
12,"O=C(COc1cnc(OCC(F)(F)F)nc1)NC12CCC(NC(=O)COc3ccc(Cl)c(F)c3)(CC1)[C@@H](O)C2 [Compound 629, 2-(4-chloro-3-fluorophenoxy)-N-[(2S)-2-hydroxy-4-(2-{[2-(2,2,2-trifluoroethoxy)pyrimidin-5-yl]oxy}acetamido)bicyclo[2.2.2]octan-1-yl]acetamide]",50 to 250
13,"O=C(COc1ccc(Cl)cc1)NC12CCCC(NC(=O)COc3ccc(Cl)cc3)(C1)C2 [Compound 178, N,N′-(bicyclo[3.1.1]heptane-1,5-diyl)bis[2-(4-chlorophenoxy)acetamide]]",> 2000
14,"N#Cc1ccc(CS(=O)(=O)NC23CC(NC(=O)COc4ccc(Cl)c(F)c4)(C2)C3)cc1 [Compound 490, 2-(4-chloro-3-fluorophenoxy)-N-(3-{[(4-cyanophenyl)methanesulfonyl]amino}bicyclo[1.1.1]pentan-1-yl)acetamide]",500 to 2000
15,"O=C(COc1ccc(C(F)(F)F)c(F)c1)NC12CCC(NC(=O)COc3ccc4c(c3)OC(F)(F)O4)(CC1)[C@@H](O)C2 [Compound 773, 2-[(2,2-difluoro-2H-1,3-benzodioxol-5-yl)oxy]-N-[(2S)-4-{2-[3-fluoro-4-(trifluoromethyl)phenoxy]acetamido}-2-hydroxybicyclo[2.2.2]octan-1-yl]acetamide]",< 10
16,"CC(O)c1ccc(OCC(=O)NC23CC(NC(=O)COc4ccc(Cl)c(F)c4)(C2)C3)cn1 (stereo not shown) [Compound 263, 2-(4-chloro-3-fluorophenoxy)-N-[3-(2-{[6-(1-hydroxyethyl)pyridin-3-yl]oxy}acetamido)bicyclo[1.1.1]pentan-1-yl]acetamide]",500 to 2000

row,Structure (SMILES),EC50 [nM]
1,"COC(=O)C1=CC2(NC(=O)COc3ccc(Cl)c(F)c3)CCC1(NC(=O)COc1ccc(Cl)c(F)c1)CC2 [Compound 718, methyl 1,4-bis[2-(4-chloro-3-fluorophenoxy)acetamido]bicyclo[2.2.2]oct-2-ene-2-carboxylate]",< 10
2,"O=C(COc1ccc(Cl)c(F)c1)N[C@]12CC[C@H](C1)[C@@H](NCCOc1ccc(Cl)c(F)c1)[C@H](O)C2 (racemic) [Compound 649, rac-2-(4-chloro-3-fluorophenoxy)-N-[(1R,3R,4R,5R)-4-{[2-(4-chloro-3-fluorophenoxy)ethyl]amino}-3-hydroxybicyclo[3.2.1]octan-1-yl]acetamide]",< 10
3,"Cc1ccc(OCC(=O)NC23CCC(NC(=O)COc4ccc(C)cc4)(CC2)[C@@H](O)C3)cc1 [Compound 442, N,N′-[(2S)-2-hydroxybicyclo[2.2.2]octane-1,4-diyl]bis[2-(4-methylphenoxy)acetamide]]",< 10
4,"O=C(COc1ccc(Cl)c(Cl)c1)NC12CCC(NC(=O)COc3ccc(Cl)c(Cl)c3)(CC1)C2 [Compound 526, N,N′-(bicyclo[2.2.1]heptane-1,4-diyl)bis[2-(3,4-dichlorophenoxy)acetamide]]",10 to 50
5,"O=C(COc1ccc(C(F)(F)F)c(F)c1)NC12CCC(NC(=O)COc3ccc(F)c(F)c3)(CC1)[C@@H](O)C2 [Compound 842, 2-(3,4-difluorophenoxy)-N-[(2S)-4-{2-[3-fluoro-4-(trifluoromethyl)phenoxy]acetamido}-2-hydroxybicyclo[2.2.2]octan-1-yl]acetamide]",< 10
6,"O=C(COc1ccc(Cl)c(F)c1)NC12CCC(NC(=O)COc3ccc(OC(F)(F)F)c(F)c3)(CC1)[C@@H](O)C2 [Compound 750, 2-(4-chloro-3-fluorophenoxy)-N-[(3S)-4-{2-[3-fluoro-4-(trifluoromethoxy)phenoxy]acetamido}-3-hydroxybicyclo[2.2.2]octan-1-yl]acetamide]",< 10
7,"O=C(COc1ccc(Cl)c(F)c1)NC12CCC(NCCOc3ccc(Cl)cc3)(CC1)C(O)C2 (stereo not shown) [Compound 336, 2-(4-chloro-3-fluorophenoxy)-N-(4-{[2-(4-chlorophenoxy)ethyl]amino}-3-hydroxybicyclo[2.2.2]octan-1-yl)acetamide]",< 10
8,"CC(C)(O)c1ccc(OCC(=O)NC23CC(NC(=O)COc4ccc(Cl)c(Cl)c4)(C2)C3)cc1 [Compound 422, 2-(3,4-dichlorophenoxy)-N-(3-{2-[4-(2-hydroxypropan-2-yl)phenoxy]acetamido}bicyclo[1.1.1]pentan-1-yl)acetamide]",250 to 500
9,"CN1C(=O)COc2c(OCC(=O)NC34CCC(NC(=O)COc5ccc(Cl)c(F)c5)(CC3)[C@@H](O)C4)cc(Cl)cc21 [Compound 752, 2-(4-chloro-3-fluorophenoxy)-N-[(2S)-4-{2-[(6-chloro-4-methyl-3-oxo-3,4-dihydro-2H-1,4-benzoxazin-8-yl)oxy]acetamido}-2-hydroxybicyclo[2.2.2]octan-1-yl]acetamide]",500 to 2000
10,"O=C(COc1ccc(S(F)(F)(F)(F)F)nc1)NC12CCC(NC(=O)COc3ccc(Cl)c(F)c3)(CC1)[C@@H](O)C2 [Compound 838, 2-(4-chloro-3-fluorophenoxy)-N-[(2S)-2-hydroxy-4-(2-{[6-(pentafluoro-lambda^6-sulfanyl)pyridin-3-yl]oxy}acetamido)bicyclo[2.2.2]octan-1-yl]acetamide]",< 10
11,"O=C(COc1ccc(Cl)c(F)c1)NC12CC(NC(=O)COc3ccnn3C3CC3)(C1)C2 [Compound 371, 2-(4-chloro-3-fluorophenoxy)-N-(3-{2-[(1-cyclopropyl-1H-pyrazol-5-yl)oxy]acetamido}bicyclo[1.1.1]pentan-1-yl)acetamide]",250 to 500
12,"O=C(COc1ccc(F)cc1)NC12CCC(NC(=O)COc3ccc(F)cc3)(CC1)[C@@H](O)C2 [Compound 550, N,N′-[(2S)-2-hydroxybicyclo[2.2.2]octane-1,4-diyl]bis[2-(4-fluorophenoxy)acetamide]]",< 10
13,"CN(C(=O)COc1ccc(Cl)c(F)c1)C12CCC(NC(=O)COc3ccc(Cl)c(F)c3)(CC1)[C@@H](O)C2 [Compound 444, 2-(4-chloro-3-fluorophenoxy)-N-{(3S)-4-[2-(4-chloro-3-fluorophenoxy)acetamido]-3-hydroxybicyclo[2.2.2]octan-1-yl}-N-methylacetamide]",10 to 50
14,"O=C(COc1ccc(Cl)c(F)c1)NC12CC(NS(=O)(=O)Cc3ccccc3)(C1)C2 [Compound 479, 2-(4-chloro-3-fluorophenoxy)-N-{3-[(phenylmethanesulfonyl)amino]bicyclo[1.1.1]pentan-1-yl]acetamide]",> 2000
15,"O=C(COc1cccc(F)c1)NC12CCC(NC(=O)COc3cccc(F)c3)(CC1)[C@@H](O)C2 [Compound 549, N,N′-[(2S)-2-hydroxybicyclo[2.2.2]octane-1,4-diyl]bis[2-(3-fluorophenoxy)acetamide]]",50 to 250
